Test results from patent publication US20240398737A1, “FUNCTIONALIZED LONG-CHAIN HYDROCARBON MONO- AND DI-CARBOXYLIC ACIDS AND DERIVATIVES THEREOF, AND THEIR USE FOR THE PREVENTION OR TREATMENT OF DISEASE” (Espervita Therapeutics, Inc., priority 2021, published 2024).
Entries after “also recorded” stand apart in the source; their conditions may differ.

Tests used:
AURORA C = AURORA C (Homo sapiens (Human), UniProt Q9UQB9); assay: Wild type kinase screen: AURORA C; assay type: biochemical; settings: compound at 10 μM, 10 μM ATP, Data 1 and Data 2 duplicates
AURORA C, sequence (Q9UQB9 whole entry): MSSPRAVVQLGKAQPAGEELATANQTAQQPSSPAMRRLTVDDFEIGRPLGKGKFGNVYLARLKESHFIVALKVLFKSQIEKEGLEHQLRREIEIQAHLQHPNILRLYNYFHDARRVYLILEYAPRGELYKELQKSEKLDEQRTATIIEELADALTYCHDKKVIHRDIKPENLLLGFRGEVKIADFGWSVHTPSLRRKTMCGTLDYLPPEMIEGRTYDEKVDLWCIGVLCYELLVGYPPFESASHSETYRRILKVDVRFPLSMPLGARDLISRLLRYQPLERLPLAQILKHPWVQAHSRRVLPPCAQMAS

BMX/ETK = BMX/ETK (Homo sapiens (Human), UniProt P51813); assay: Wild type kinase screen: BMX/ETK; assay type: biochemical; settings: compound at 10 μM, 10 μM ATP, Data 1 and Data 2 duplicates
BMX/ETK, sequence (P51813 whole entry): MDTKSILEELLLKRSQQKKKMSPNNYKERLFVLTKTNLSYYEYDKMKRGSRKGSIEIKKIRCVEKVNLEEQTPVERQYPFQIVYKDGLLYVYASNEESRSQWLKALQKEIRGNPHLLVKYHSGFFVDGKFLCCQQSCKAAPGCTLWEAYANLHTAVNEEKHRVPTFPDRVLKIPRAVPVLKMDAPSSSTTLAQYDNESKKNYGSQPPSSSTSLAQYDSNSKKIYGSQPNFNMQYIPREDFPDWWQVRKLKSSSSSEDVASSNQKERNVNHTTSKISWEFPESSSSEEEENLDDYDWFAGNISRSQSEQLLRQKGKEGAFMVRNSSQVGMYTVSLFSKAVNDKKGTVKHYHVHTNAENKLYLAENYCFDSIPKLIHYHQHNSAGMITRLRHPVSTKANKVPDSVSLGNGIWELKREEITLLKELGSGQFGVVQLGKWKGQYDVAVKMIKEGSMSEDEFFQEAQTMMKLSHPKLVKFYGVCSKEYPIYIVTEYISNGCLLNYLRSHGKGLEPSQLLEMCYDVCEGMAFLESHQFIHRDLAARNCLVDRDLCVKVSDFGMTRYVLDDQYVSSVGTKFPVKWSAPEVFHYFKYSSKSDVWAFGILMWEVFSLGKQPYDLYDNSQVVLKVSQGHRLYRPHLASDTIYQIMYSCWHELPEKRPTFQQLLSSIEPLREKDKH

CAMK2g = CAMK2g (Homo sapiens (Human), UniProt Q13555); assay: Wild type kinase screen: CAMK2g; assay type: biochemical; settings: compound at 10 μM, 10 μM ATP, Data 1 and Data 2 duplicates
MLCK/MYLK = MLCK/MYLK (Homo sapiens (Human), UniProt Q15746); assay: Wild type kinase screen: MLCK/MYLK; assay type: biochemical; settings: compound at 10 μM, 10 μM ATP, Data 1 and Data 2 duplicates
TNIK = TNIK (Homo sapiens (Human), UniProt Q9UKE5); assay: Wild type kinase screen: TNIK; assay type: biochemical; settings: compound at 10 μM, 10 μM ATP, Data 1 and Data 2 duplicates
TNIK, sequence (Q9UKE5 whole entry, species assumed): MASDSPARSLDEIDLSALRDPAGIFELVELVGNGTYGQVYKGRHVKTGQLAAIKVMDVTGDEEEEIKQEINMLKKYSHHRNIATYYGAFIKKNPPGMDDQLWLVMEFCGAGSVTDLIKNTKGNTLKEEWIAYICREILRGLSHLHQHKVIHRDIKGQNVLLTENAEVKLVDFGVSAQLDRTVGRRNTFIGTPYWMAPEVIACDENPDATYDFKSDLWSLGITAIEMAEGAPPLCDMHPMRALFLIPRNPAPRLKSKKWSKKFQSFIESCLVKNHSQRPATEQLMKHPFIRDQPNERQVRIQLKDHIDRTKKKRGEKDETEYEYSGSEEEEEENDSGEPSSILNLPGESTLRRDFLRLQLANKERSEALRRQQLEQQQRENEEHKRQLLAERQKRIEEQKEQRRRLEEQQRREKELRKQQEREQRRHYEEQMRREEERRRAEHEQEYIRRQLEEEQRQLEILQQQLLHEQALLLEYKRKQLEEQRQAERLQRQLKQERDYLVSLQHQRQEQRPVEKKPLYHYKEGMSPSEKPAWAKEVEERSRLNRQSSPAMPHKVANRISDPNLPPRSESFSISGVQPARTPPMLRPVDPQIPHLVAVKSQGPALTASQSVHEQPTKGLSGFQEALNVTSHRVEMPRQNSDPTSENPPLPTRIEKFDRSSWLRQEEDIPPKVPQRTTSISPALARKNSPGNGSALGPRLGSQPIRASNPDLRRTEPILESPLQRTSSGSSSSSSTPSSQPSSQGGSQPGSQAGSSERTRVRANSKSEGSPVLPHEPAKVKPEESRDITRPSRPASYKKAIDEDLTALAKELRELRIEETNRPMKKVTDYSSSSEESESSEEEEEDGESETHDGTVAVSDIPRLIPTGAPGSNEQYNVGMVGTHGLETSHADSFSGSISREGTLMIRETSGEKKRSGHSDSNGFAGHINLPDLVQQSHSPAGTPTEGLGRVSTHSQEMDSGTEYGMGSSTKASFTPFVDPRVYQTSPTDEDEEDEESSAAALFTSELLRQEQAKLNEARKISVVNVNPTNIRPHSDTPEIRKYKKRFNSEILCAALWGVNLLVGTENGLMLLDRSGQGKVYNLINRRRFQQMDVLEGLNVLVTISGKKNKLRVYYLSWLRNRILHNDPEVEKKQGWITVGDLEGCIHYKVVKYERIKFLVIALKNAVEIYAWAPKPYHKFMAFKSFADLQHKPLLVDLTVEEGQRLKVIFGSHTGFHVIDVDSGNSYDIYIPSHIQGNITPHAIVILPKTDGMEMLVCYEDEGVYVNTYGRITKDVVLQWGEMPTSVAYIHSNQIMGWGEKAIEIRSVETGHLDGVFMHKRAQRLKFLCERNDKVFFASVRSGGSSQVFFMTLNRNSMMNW

[1] = system: UUO-induced renal fibrosis; assay: Murine unilateral ureter obstruction (UUO) renal fibrosis model; assay type: in vivo, mouse; settings: 100 mg/kg oral gavage daily for 9 days after UUO, mice
Procedure: Animal studies were carried out in accordance with the principles of laboratory animal care of the Canadian Council on Animal Care guidelines. Male C57BL/6 mice were obtained from Charles Rivers Laboratories. FIG. 13A summarizes the timeline for this experiment. UUO model was created as follows: male C57BL6J mice (8 weeks old from Charles River Laboratories) were anesthetized with 4% isofluorane and an anesthetic plane was maintained throughout surgery at 1.5-2% isofluorane with 1 L/min oxygen. A 0.5 cm incision was made longitudinally on the left flank. The left ureter and lower pole of the kidney was exposed, and the ureter was ligated with a 6′0 silk suture in close proximity to the renal pelvis. A sham operation control group was created by surgical exposure of the left ureter and lower pole of the kidney followed by closure of the incision. Subcutaneous fluids were given (1.5 ml 0.9% NaCl) and the incision was closed with 4′0 silk sutures followed by staples for the skin. Starting the day of model creation, the animals were given a daily dose of either vehicle alone (sham surgery and UUO control, 1.5% CMC and 0.2% Tween-20) or vehicle containing Compound I-32 or Compound I-1 (at 100 mg/kg) by oral gavage for 9 days following surgery. At the end of the treatment period mice were anesthetized prior to euthanasia by bilateral thoraco-abdominal incision. Blood was collected by cardiac puncture, followed by kidney perfusion with cold saline through left ventricular cannulation. The left kidney was removed, a sample taken and fixed in formalin for histological analysis. Trichrome staining was done on formalin-fixed sections (4 μm) following deparaffinization according to manufacturer's instructions (Sigma HT15-1KT). Images were quantified by measuring the percentage of positive area using Image J on micrographs captured at x200 magnification using the BX41 Olympus microscope. Statistical analysis was performed using GraphPad Prism 8. A one-way ANOVA was used to determine significance. A p-value of less than or equal to 0.05 was used as the criterion of significance. This route was selected because it simulates oral administration to mammalian, including human, subjects and ensures that the correct dose of compound is ingested by each animal.
Immunohistochemistry. Formalin-fixed kidneys were embedded in paraffin, then sectioned at 4 μm. After deparaffinization, they were stained with Masson's trichrome to assess collagen content (Sigma Aldrich, catalogue no. HT15-1T), picrosirius red (PSR) to more specifically assess pathogenic collagens I and III (Polysciences, Inc., catalogue no. 24901-500), αSMA as a marker of activated, profibrotic fibroblasts (PIERCE, catalogue no. MA1-06110; 30 min steaming for antigen retrieval, antibody used at 1:5000 for 2 h at room temperature), CD3 to identify T-lymphocytes (Dako, catalogue no. A0452; 30 min steaming for antigen retrieval, antibody used at 1:500 overnight at 4° C.) and F4/80 to identify macrophages (done by the McMaster Histology Facility). Slides were counterstained with hematoxylin, dehydrated twice with 90% ethanol, cleared twice with xylene, coverslipped with mounting media, and then left to dry overnight before imaging. Masson's trichrome, αSMA, CD3 and F4/80 were imaged under transmitted light and quantified using ImageJ. The Olympus IX81 fluorescence microscope driven by Metamorph was used to image and quantify PSR staining. Images were quantified by measuring the percentage of positive area. All micrographs were captured at x20 magnification.

[2] = system: human hematopoietic stem and progenitor cells; assay: Megakaryopoiesis and platelet production in cultured human hematopoietic stem and progenitor cells; assay type: cell-based; settings: for Inhibition of megakaryocyte/platelet parameters after addition on day 6 of culture: 30 μM added on day 6; for Inhibition of megakaryopoiesis or platelet production (overall): 30 μM, cultured human HSPC; for CD41a+ mean fluorescence intensity (MFI), normalized / Normalized cell size (CD41a+) / CD41a CD42b+ counts (mature megakaryocytes), normalized to reference media control / CD41a+ cells (megakaryocytes), normalized to reference media control / Platelet counts, normalized to reference media control: added day 0, 8 days culture, I-32 and I-1 30 μM, ABT-737 6 μmol; for CD41a CD42b+ counts (mature megakaryocytes), normalized to reference media control / CD41a+ cells (megakaryocytes), normalized to reference media control / Platelet counts, normalized to reference media control: average±SD
Procedure: Materials and Methods. Hematopoietic stem and progenitor cells, identified as viable CD45+ CD34+ cells, were isolated from peripheral blood of healthy donors by a method known in the art (see Ivetic N, Nazi I, Karim N et al. Producing megakaryocytes from a human peripheral blood source. Transfusion 2016; 56:1066-74). These isolated cells were then analyzed for purity before being expanded for four days using a commercial supplement to increase their cell population. After expansion, the cells were analyzed for purity, washed, and stimulated with a saturating concentration of thrombopoietin (20 ng/mL) and stem cell factor (50 ng/mL) to begin megakaryopoiesis. Compound I-32 and Compound I-1 were added at this timepoint at a concentration of 30 μM. The cells were then cultured for 8 days to develop into megakaryocytes and analyzed via flow cytometry to assess their number, maturity, and platelet count as defined by CD41a, CD42b and Calcein-AM expression. In addition, Compound I-32 and Compound I-1 were added to cells during the later stages of development (day 6) to assess their impact on maturation. ABT-737 (6 μmol) was used as a positive control and a DMSO vehicle control (<0.15% v/v) was the negative control. All counts are normalized to a media control (PBS) as a reference for basic cell growth.
Statistical analysis. Statistical analyses were carried out by comparing effects on measured parameters in comparison to vehicle control. A value of […] (One-way ANOVA multiple comparisons) was considered as significant.
Two isolations were performed from two healthy donors (2 males) and used to assess the impacts of Compound I-32 and Compound I-1. For one of the isolations, enough expanded hematopoietic stem and progenitor cells (HSPC) (Experiment 1) were obtained so that the addition of the compounds on day 6 was also performed along with the initial experiment. For the other experiment (Experiment 2) only an 8-day incubation was performed.
All results were normalized to a reference media (PBS) and Compound I-32 and Compound I-1 were compared to a vehicle control. Reference compound ABT-737 is a known BCL-2 inhibitor and was used a positive control. Results in FIGS. 25A-25J are the summary of a single experiments conducted in triplicates. No statistical inhibition was detected for Compound I-32 or Compound I-1 (p>0.05 one-way ANOVA).

[3] = system: hepatic de novo lipogenesis; assay: Hepatic de novo lipogenesis (14C-glucose) in a murine model of NASH; assay type: in vivo, mouse; settings: 100 mg/kg as printed in the text (Table 6 prints 60 mg/kg)

Row | Compound | % Enzyme Activity (relative to DMSO controls) (AURORA C) | % Enzyme Activity (relative to DMSO controls) (BMX/ETK) | % Enzyme Activity (relative to DMSO controls) (CAMK2g) | % Enzyme Activity (relative to DMSO controls) (MLCK/MYLK) | % Enzyme Activity (relative to DMSO controls) (TNIK) | Markers of fibrosis / UUO-induced renal fibrosis [1] | Renal T-lymphocyte infiltration (CD3 stain) [1] | Renal macrophage infiltration (F4/80 stain) [1] | Trichrome staining (kidney fibrosis) [1] | αSMA staining (kidney fibrosis) [1] | Inhibition of megakaryocyte/platelet parameters after addition on day 6 of culture [2] | Inhibition of megakaryopoiesis or platelet production (overall) [2] | CD41a+ mean fluorescence intensity (MFI), normalized [2] | Normalized cell size (CD41a+) [2] | CD41a CD42b+ counts (mature megakaryocytes), normalized to reference media control [2] | CD41a+ cells (megakaryocytes), normalized to reference media control [2] | Platelet counts, normalized to reference media control [2] | Inhibition of liver lipogenesis [3]
1 | CC(C)(CCCCc1ccc(CCCCC(C)(C)C(=O)O)cc1)C(=O)O [Compound I-1, 6-[4-(5-carboxy-5-methylhexyl)-phenyl]-2,2-dimethylhexanoic acid] | 93.1% | 51.72% | 57.02% | 106.34% | 101.58% | attenuated | no effect; also recorded: unaffected | significantly reduced; also recorded: similarly effective in decreasing | decreased | decreased | no inhibition detected | do not significantly affect; also recorded: do not inhibit | 109±10% | 98±3% | 97±9% | 94±2% | 94±12% | 69%
2 | CC(C)(CCCCc1cccc(CCCCC(C)(C)C(=O)O)c1)C(=O)O [Compound I-32, 6-[3-(5-carboxy-5-methylhexyl)-phenyl]-2,2-dimethylhexanoic acid] | 97.44% | 52.97% | 66.13% | 103.59% | 99.68% | attenuated | no effect; also recorded: unaffected | significantly reduced; also recorded: similarly effective in decreasing | trend to reduction | trend to reduction | no inhibition detected | do not significantly affect; also recorded: do not inhibit | 110±11% | 94±3% | 106±17% | 98±3% | 134±34% | ~50%
